Measurements reported in patent US11026910B2, “α- and γ-truxillic acid derivatives and pharmaceutical compositions thereof” (The Research Foundation for The State University of New York, priority 2012, dated 2021).
“Also recorded” adds a separate entry of the source.

Assays:
[1] = tested on: dorsal raphe (DR) serotonin (5-HT) neurons; assay: Patch-clamp electrophysiology in brain slices, glutamate-mediated EPSCs; format: cell-based
Procedure: Whole-cell-voltage clamp recordings of dorsal raphe (DR) serotonin (5-HT) neurons were performed as previously described. Briefly, DR neurons were visualized using an upright microscope (BX 51 WI, Olympus, Tokyo, Japan) equipped with a differential interference contrast and infrared imaging system. Somatic recordings from DR neurons were obtained with path electrodes ([…]) back-filled with potassium gluconate based internal solution of the following composition: 120 mM potassium gluconate, 10 mM KCl, 10 mM Na2-phosphocreatine, 10 mM HEPES, 1 mM MgCl2, 1 mM EGTA, 2 mM Na2-ATP, 0.25 mM Na-GTP, pH 7.3 (Adjusted with KOH; Osmolarity, 280 to 290 mOsmol/l). All the recordings were conducted in the presence of GABAA receptor antagonist picrotoxin (100 μM). Excitatory postsynaptic currents (EPSCs) were evoked with a single square stimulus (intensity, 1 to 10 V, duration, 100 to 200 μs) delivered via a glass stimulating electrode. […]
The amplitude of EPSCs was determined by measuring the average current during a 2-ms period at the peak of each EPSC and subtracted from the baseline current determined during a 5-ms time window before the stimulus. All EPSC amplitudes were normalized to the mean baseline amplitude recorded for at least 10 min before drug application. […]

wild-type HeLa cells = assay: AEA uptake in wild-type HeLa cells; format: cell-based
Procedure: AEA uptake assays in wild-type and FABP5 knockdown HeLa cells were performed exactly as described (Kaczocha, M. et al. 2012).

PPARα = target: T1, PPARα (Homo sapiens, UniProt Q07869); assay: PPARα transactivation in HeLa cells; format: cell-based
T1 construct: expressed in transfected cells; host or cells: HeLa
T1 sequence (Q07869 1-468): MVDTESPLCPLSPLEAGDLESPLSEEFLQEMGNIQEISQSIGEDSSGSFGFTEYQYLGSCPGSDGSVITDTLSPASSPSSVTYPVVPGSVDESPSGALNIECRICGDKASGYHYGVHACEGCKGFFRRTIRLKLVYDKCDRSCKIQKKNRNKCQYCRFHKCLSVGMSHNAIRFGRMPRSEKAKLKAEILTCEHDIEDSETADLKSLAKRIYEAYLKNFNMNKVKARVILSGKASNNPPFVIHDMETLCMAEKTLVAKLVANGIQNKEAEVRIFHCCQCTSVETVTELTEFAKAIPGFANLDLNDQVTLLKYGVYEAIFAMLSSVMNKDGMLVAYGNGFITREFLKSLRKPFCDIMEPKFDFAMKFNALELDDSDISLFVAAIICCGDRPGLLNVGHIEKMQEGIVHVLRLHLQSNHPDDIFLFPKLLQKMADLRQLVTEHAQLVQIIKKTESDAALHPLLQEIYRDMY
Procedure: (§1) PPARα and PPARγ transactivation assays were performed in HeLa cells exactly as described (Kaczocha, M. et al. 2012).

PPARγ = target: T2, PPARγ (Homo sapiens, UniProt P37231); assay: PPARγ transactivation in HeLa cells; format: cell-based
T2 construct: expressed in transfected cells; host or cells: HeLa
T2 sequence (P37231 1-505): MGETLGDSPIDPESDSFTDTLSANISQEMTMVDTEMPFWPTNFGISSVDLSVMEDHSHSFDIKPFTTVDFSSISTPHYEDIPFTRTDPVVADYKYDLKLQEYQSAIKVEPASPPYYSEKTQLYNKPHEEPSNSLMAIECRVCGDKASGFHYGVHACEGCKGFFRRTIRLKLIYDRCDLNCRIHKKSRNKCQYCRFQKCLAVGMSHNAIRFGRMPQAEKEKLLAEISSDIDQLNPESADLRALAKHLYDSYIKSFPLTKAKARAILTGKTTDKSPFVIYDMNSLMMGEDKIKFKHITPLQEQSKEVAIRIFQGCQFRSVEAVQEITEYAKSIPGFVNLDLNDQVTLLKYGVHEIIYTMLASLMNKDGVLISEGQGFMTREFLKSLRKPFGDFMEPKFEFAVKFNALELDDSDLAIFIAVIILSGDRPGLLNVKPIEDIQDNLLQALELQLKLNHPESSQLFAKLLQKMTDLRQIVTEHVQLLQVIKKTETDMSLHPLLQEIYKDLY
Procedure: as §1

male C57Bl6 mice = assay: Formalin test; format: in vivo
Procedure: (§2) We used male C57Bl6 mice (22-30 g, Taconic Farms) for all experiments. The animals were group housed at room temperature and kept on a 12:12 hour light:dark cycle with ad libitum access to water and food. The animals were habituated to the experimental room for one week before testing. All experiments were approved by the Stony Brook University Institutional Animal Care and Use Committee. The experimenter was blinded to the treatment conditions of each animal.
Mice were habituated to the observation chamber (Plexiglas box, 25 cm×25 cm×25 cm) for 30 min prior to formalin injection. The mice subsequently received an injection of formalin (2.5% in saline, 20 μl) into the plantar surface of the right hind paw using a 27 gauge needle. The animals were immediately placed back into the observation, chamber and nocifensive behavior (time spent licking or biting the paw) was recorded for 60 min. The formalin test consists of two phases with the first phase (0-5 min) reflecting nociceptor activation and the second phase (15-45 min) reflecting an inflammatory pain response.
Behavioral data are presented as means±S.E.M. for the vehicle and inhibitor-treated groups, each consisting of at least 6 animals. Statistical significance between vehicle and inhibitor groups was determined using unpaired t-tests or one-way ANOVA followed by Dunnett's post hoc analysis. In all cases, differences of p<0.05 were considered significant.

mice = assay: Acetic acid-induced writhing; format: in vivo
Procedure: as §2

[2] = tested on: brain levels of the endocannabinoid anandamide (AEA); assay: Brain levels of the endocannabinoid anandamide (AEA); format: in vivo, mice; details: FIG. 17
Procedure: as §2

[3] = 6 hrs incubation, luciferase reporter

- agonist properties at CB1 receptors ([1]; concluded from EPSC amplitude, 10 μM): is not a CB1 receptor agonist
- activation of PPARα (PPARα; [3]): ~2 fold
- agonism at PPARα (PPARα; compared with GW7647): weak agonist
- activation of PPARγ (PPARγ; [3]): ~3 fold
- agonism at PPARγ (PPARγ; compared with rosiglitazone): weak agonist
SMILES: O=C(O)[C@H]1[C@@H](c2ccccc2)[C@@H](C(=O)Oc2cccc3ccccc23)[C@@H]1c1ccccc1 (single isomer, unassigned) [Compound 26, α-2,4-diphenyl-cyclobutane-1,3-dicarboxylic Acid mono-(1-naphthol) Ester]
- amplitude of EPSCs ([1]; bath application 10 μM, n=8): 107±6.7 % of baseline
- cellular AEA uptake / accumulation (wild-type HeLa cells): significantly inhibited; also recorded: inhibits
- formalin test first phase (0-5 min) nocifensive behavior (male C57Bl6 mice; 20 mg/kg, i.p. (FIG. 10A)): significantly reduced; also recorded: reduces
- formalin test second phase (15-45 min) nocifensive behavior (male C57Bl6 mice; 20 mg/kg, i.p. (FIG. 10A)): only during the first phase
- first phase of formalin-induced nociception (male C57Bl6 mice; FIG. 16B): reduce
- second phase of formalin-induced nociception (male C57Bl6 mice; FIG. 16B): reduce
- antinociceptive effects with SR141716 (3 mg/kg) and GW6471 (4 mg/kg) (mice; FIG. 16E): reversed
- acetic acid-induced writhing (mice; FIGS. 16C-D): reduces
- brain levels of anandamide (AEA) [2]: elevates
